Results taken from patent US8889903B2, “Synthesis of rare earth metal extractant” (Shin-Etsu Chemical Co., Ltd., priority 2010, dated 2014).
Converted amounts (≈) assume the structure as drawn.

Assay: Solubility in water
Format: physicochemical
Procedure: If B/A<1.0, which means an excess of diglycolic anhydride for reaction, the desired dialkyl diglycol amic acid is obtained as the reaction product, in which unreacted diglycolic acid may remain. When solvent extraction is carried out using dialkyl diglycol amic acid having diglycolic acid left therein, no satisfactory separation ability is available and the solution becomes white turbid because clad is formed between organic phase and aqueous phase. […] This is because the diglycolic acid remaining along with the metal extractant, dialkyl diglycol amic acid forms a complex with a rare earth metal ion, inhibiting satisfactory extraction and separation. That is, diglycolic acid becomes an inhibitory factor to extraction. To obtain diglycolic acid-free dialkyl diglycol amic acid as the rare earth metal extractant capable of normal extraction and separation, the step of removing unreacted diglycolic acid is necessary as in the prior art method. Specifically, the water-soluble diglycolic acid must be removed by removing the synthesis medium and washing the reaction product with water. […] In order to use the dialkyl diglycol amic acid in crystallized form as the rare earth metal extractant, filtration and drying steps are needed. The process becomes less efficient because extra steps are necessary as compared with the range of 1.0≦B/A≦1.2.

CCCCCCCCN(CCCCCCCC)C(=O)COCC(=O)O [DODGAA, N,N-dioctyl-3-oxapentane-1,5-amic acid]
solubility in water: 6.2 µM (≈ 2.22 µg/mL)
